Drawing on ChEMBL document CHEMBL4229568, “Discovery of natural flavonoids as activators of Nrf2-mediated defense system: Structure-activity relationship and inhibition of intracellular oxidative insults” (Bioorg Med Chem, 2018), this text covers Activity and fold change (FC) for 24 molecules.

The source made the active and inactive calls. The rule behind the calls is not given here.

The target in one test is T1, Nuclear factor erythroid 2-related factor 2 (Homo sapiens) (UniProt Q16236).
T1 sequence (whole entry): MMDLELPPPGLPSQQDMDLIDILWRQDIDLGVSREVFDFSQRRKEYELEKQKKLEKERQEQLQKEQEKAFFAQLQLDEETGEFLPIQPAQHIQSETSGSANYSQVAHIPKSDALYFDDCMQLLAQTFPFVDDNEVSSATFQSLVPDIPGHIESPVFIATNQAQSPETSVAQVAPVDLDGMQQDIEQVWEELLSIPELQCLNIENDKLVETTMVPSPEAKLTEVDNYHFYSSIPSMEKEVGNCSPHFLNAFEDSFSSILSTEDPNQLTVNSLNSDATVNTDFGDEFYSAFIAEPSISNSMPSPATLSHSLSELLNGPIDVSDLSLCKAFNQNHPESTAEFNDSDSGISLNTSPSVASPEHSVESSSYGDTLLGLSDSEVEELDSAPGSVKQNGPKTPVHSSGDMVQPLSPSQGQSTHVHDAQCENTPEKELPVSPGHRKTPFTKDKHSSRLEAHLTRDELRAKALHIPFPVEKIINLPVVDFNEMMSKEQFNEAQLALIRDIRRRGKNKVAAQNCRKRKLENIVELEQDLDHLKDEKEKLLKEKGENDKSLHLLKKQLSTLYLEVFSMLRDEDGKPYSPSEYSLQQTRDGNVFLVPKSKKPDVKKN
Briefly: Activation of Nrf2 in human BEAS2B cells assessed as upregulation of NQO1 protein expression at 20 uM after 12 hrs by immunoblot analysis. The class given is cell-based. Background: A western blot detects proteins with antibodies after separation by electrophoresis.
Take `CC(C)(C)c1cc(O)ccc1O`: the outcome was Active.

A further test has as its target T1, Nuclear factor erythroid 2-related factor 2 (Homo sapiens). Kind of test: Activation of Nrf2 in human BEAS2B cells assessed as upregulation of gamma-GCS protein expression at 20 uM after 12 hrs by immunoblot analysis. Format: cell-based.
`CC(C)(C)c1cc(O)ccc1O`: the outcome was Active.

The target is the same in a further test. Briefly: Activation of Nrf2 in human BEAS2B cells assessed as upregulation of Nrf2 protein expression at 20 uM after 12 hrs by immunoblot analysis. Format: cell-based.
Take `CC(C)(C)c1cc(O)ccc1O`: the outcome was Active.

The target in another test is T2, Nuclear factor erythroid 2-related factor 2 (Mus musculus) (UniProt Q60795).
T2 sequence (whole entry): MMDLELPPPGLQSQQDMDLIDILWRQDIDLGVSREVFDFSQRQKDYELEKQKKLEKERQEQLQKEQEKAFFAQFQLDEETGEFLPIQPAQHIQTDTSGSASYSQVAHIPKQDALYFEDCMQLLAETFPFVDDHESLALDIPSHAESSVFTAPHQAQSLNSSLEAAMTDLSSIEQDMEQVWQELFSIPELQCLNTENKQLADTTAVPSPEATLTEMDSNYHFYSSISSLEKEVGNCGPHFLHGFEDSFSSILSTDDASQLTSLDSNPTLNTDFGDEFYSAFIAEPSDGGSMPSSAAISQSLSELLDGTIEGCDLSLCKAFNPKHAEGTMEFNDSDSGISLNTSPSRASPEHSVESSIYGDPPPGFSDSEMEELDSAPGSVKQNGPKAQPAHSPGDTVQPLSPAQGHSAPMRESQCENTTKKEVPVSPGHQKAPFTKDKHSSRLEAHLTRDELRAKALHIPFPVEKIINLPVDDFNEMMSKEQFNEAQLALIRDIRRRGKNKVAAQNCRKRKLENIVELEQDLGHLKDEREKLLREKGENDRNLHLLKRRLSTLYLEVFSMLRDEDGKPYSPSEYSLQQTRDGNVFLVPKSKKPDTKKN
Kind of test: Activation of Nrf2 in mouse Heap1c1c7 cells assessed as induction of NAD(P)H:quinone reductase activity at 25 uM relative to control. The class given is cell-based.
As to `C/C(=C/Cc1c(O)ccc(C(=O)/C=C/c2ccc(O)cc2O)c1O)CC(=O)/C=C/c1ccc(O)cc1`, the fold change (FC) stood at 1.39.

On to `C/C(=C\Cc1c(O)ccc(C(=O)/C=C/c2ccc(O)cc2)c1O)CC(=O)/C=C/c1ccc(O)cc1`, for which the fold change (FC) worked out at 1.57.

For `CC(C)/C=C/c1c(O)cc2oc(-c3ccc(O)cc3O)c(/C=C/C(C)C)c(=O)c2c1O`, the fold change (FC) worked out at 1.4.

With `COc1cc(/C=C/C(=O)C/C(C)=C/Cc2c(O)ccc(C(=O)/C=C/c3ccc(O)cc3)c2O)ccc1O`, the fold change (FC) was 1.49.

A further test deals with T2, Nuclear factor erythroid 2-related factor 2 (Mus musculus). Briefly: Activation of Nrf2 in mouse Heap1c1c7 cells assessed as induction of NAD(P)H:quinone reductase activity at 100 uM relative to control. Format: cell-based.
For `C/C(=C/Cc1c(O)ccc(C(=O)/C=C/c2ccc(O)cc2)c1O)CO`, the fold change (FC) amounted to 1.52.

`C/C(=C\Cc1c(O)ccc(C(=O)/C=C/c2ccc(O)cc2)c1O)CO`: the fold change (FC) was 1.43.

For the molecule `C/C(=C\Cc1c(O)ccc(C(=O)/C=C/c2ccc(O)cc2O)c1O)CO`, the fold change (FC) worked out at 1.61.

Turning to `CC(C)=CCc1c(-c2ccc(O)cc2O)oc2cc(O)cc(O)c2c1=O`, the fold change (FC) worked out at 1.31.

As to `CC(C)=CCc1c(O)cc2oc3c(c(=O)c2c1O)C(C=C(C)C)Oc1cc(O)ccc1-3` (stereo unspecified), the fold change (FC) was determined as 1.31.

`CC(C)=CCc1c(O)ccc(C(=O)/C=C/c2ccc(O)cc2O)c1O`: the fold change (FC) came to 1.34.

On to `CC(C)=CCc1c(O)ccc2c1OC(c1ccc(O)cc1O)CC2=O` (stereo unspecified), for which the fold change (FC) amounted to 1.75.

`COc1ccc([C@@H]2CC(=O)c3c(cc(OC)c(OC)c3OC)O2)cc1OC`: the fold change (FC) stood at 1.81.

Turning to `O=C1CC(c2ccc(O)c(O)c2)Oc2cc(O[C@@H]3O[C@H](CO)[C@@H](O)[C@H](O)[C@H]3O)cc(O)c21` (stereo partly specified), the fold change (FC) worked out at 1.66.

Take `O=C1c2c(O)cc(O)cc2OC(c2ccc(O)cc2)C1O` (stereo unspecified): the fold change (FC) came to 1.49.

For another test the target is unchanged. Kind of test: Activation of Nrf2 in mouse Heap1c1c7 cells assessed as induction of NAD(P)H:quinone reductase activity at 50 uM relative to control. The class given is cell-based.
For the molecule `CC(C)=CCc1c(O)cc2oc(-c3ccc(O)cc3O)c(/C=C/C(C)C)c(=O)c2c1O`, the fold change (FC) is 1.86.

For the molecule `CC(C)=CCc1c(O)ccc(C(=O)/C=C/c2ccc(O)cc2)c1O`, the fold change (FC) was determined as 1.69.

Consider `COc1cc([C@@H]2CC(=O)c3c(O)cc(O)cc3O2)ccc1O`, for which the fold change (FC) turned out to be 1.51.

`O=C1C[C@@H](c2ccc(O)c(O)c2)Oc2cc(O)cc(O)c21`: the fold change (FC) worked out at 1.36.

With `O=c1c(O)c(-c2ccc(O)cc2)oc2cc(O)cc(O)c12`, the fold change (FC) was 1.51.

Consider `O=c1cc(-c2ccc(O)c(-c3c(O)cc(O)c4c(=O)cc(-c5ccc(O)cc5)oc34)c2)oc2cc(O)cc(O)c12`, for which the fold change (FC) was found to be 1.42.

For a further test the target is unchanged. Briefly: Activation of Nrf2 in mouse Heap1c1c7 cells assessed as induction of NAD(P)H:quinone reductase activity at 12.5 uM relative to control. Format: cell-based.
For `C/C(=C/Cc1c(O)ccc(C(=O)/C=C/c2ccc(O)cc2)c1O)CC(=O)/C=C/c1ccc(O)cc1`, the fold change (FC) is 1.31.

Consider `COc1cc(/C=C/C(=O)C/C(C)=C\Cc2c(O)ccc(C(=O)/C=C/c3ccc(O)cc3)c2O)ccc1O`, for which the fold change (FC) stood at 1.46.

Consider `O=c1c(O)c(-c2ccc(O)c(O)c2)oc2cc(O)cc(O)c12`, for which the fold change (FC) is 1.36.
